Experimental data reported in patent US8529874B2, “Peptide imaging agents” (GE Healthcare AS, priority 2007, dated 2013).
Bridge positions count the residues as written; N and C are the ends.

Columns and labels:
mouse c-Met/Fc chimera = target: T1, mouse c-Met/Fc chimera (Mus musculus, UniProt P16056); assay: In vitro fluorescence polarisation assay, binding to mouse c-Met; conditions: dye-labelled peptide 20 nM, c-Met/Fc 0-150 nM (tested range)
T1 construct: purchased R&D Systems
Experimental: The principle of the fluorescence polarisation method can briefly be described as follows:
Monochromatic light passes through a horizontal polarizing filter and excites fluorescent molecules in the sample. Only those molecules that oriented properly in the vertically polarized plane adsorb light, become excited, and subsequently emit light. The emitted light is measured in both horizontal and vertical planes. The anistropy value (A), is the ratio between the light intensities following the equation
The fluorescence anistropy measurements were performed in 384-well microplates in a volume of 10 μL in binding buffer (PBS, 0.01% Tween-20, pH 7.5) using a Tecan Safire fluorescence polarisation plate reader (Tecan, US) at ex646/em678 nm. The concentration of dye-labelled peptide was held constant (20 nM) and the concentrations of the human or mouse c-Met/Fc chimera (R&D Systems) or Semaphorin 6A (R&D Systems) were varied from 0-150 nM. Binding mixtures were equilibrated in the microplate for 10 min at 30° C. The observed change in anistropy was fit to the equation
[formula] where robs is the observed anistropy, rfree is the anistropy of the free peptide, rbound is the anistropy of the bound peptide, KD is the dissociation constant, cMet is the total c-Met concentration, and P is the total dye-labelled peptide concentration. […]

HCT-15 tumours = assay: In vivo optical imaging of HCT-15 tumour slice against normal colon; parameters: species or system BALB c/A nude (Bom) mice
Text: 54 Female BALB c/A nude (Bom) mice were used in the study. The use of the animals was approved by the local ethics committee. BALB c/A nude is an inbred immunocompromised mouse strain with a high take rate for human tumours as compared to other nude mice strains. The mice were 4 weeks old upon arrival and with a body weight of approx. 20 grams at the start of the study. The animals were housed in individually ventilated cages (IVC, Scanbur BK) with HEPA filtered air. The animals had ad libitum access to “Rat and Mouse nr. 3 Breeding” diet (Scanbur BK) and tap water acidified by addition of HCl to a molar concentration of 1 mM (pH 3.0).
The colon cancer cell HCT-15 is derived from human colon carcinomas and is reported to express c-Met according to Zeng et al [Clin. Exp. Metastasis, 21, 409-417. (2004)]. The cell line was proven to be tumorigenic when inoculated subcutaneously into nude mice [Flatmark et al, Eur. J. Cancer 40, 1593-1598 (2004)].
HCT-15 cells were grown and prepared for subcutaneous inoculation in RPMI (Sigma Cat# R0883) with 10% serum and penicillin/streptomycin. Stocks were made at passage number four (P4) and frozen down for storage in liquid nitrogen at 3×10^7 cells/vial in the culture media containing 5% DMSO. On the day of the transplantation, the cells were thawed quickly in a 37° C. water bath (approx. 2 min), washed and resuspended in PBS/2% serum (centrifugation at 1200 rpm for 10 min). Thorough mixing of cells in the vials was ensured every time cells were aspirated into the dosing syringe. Volumes of 0.1 ml of cell suspension were injected s.c. at the shoulder and at the back using a fine bore needle (25 G) while the animals were under light gas anaesthesia. The animals were then returned to their cages and the tumours were allowed to grow for 13-17 days. […]
Imaging was performed through a clinical laparoscope adapted to use a light source to excite the reporter and a filtering system to extract the fluorescence component. […] The images were visually scored using the standard scoring system employed for receiver operating characteristic analysis.

T1 sequence (P16056 with tags, fused parts or gaps limits assumed): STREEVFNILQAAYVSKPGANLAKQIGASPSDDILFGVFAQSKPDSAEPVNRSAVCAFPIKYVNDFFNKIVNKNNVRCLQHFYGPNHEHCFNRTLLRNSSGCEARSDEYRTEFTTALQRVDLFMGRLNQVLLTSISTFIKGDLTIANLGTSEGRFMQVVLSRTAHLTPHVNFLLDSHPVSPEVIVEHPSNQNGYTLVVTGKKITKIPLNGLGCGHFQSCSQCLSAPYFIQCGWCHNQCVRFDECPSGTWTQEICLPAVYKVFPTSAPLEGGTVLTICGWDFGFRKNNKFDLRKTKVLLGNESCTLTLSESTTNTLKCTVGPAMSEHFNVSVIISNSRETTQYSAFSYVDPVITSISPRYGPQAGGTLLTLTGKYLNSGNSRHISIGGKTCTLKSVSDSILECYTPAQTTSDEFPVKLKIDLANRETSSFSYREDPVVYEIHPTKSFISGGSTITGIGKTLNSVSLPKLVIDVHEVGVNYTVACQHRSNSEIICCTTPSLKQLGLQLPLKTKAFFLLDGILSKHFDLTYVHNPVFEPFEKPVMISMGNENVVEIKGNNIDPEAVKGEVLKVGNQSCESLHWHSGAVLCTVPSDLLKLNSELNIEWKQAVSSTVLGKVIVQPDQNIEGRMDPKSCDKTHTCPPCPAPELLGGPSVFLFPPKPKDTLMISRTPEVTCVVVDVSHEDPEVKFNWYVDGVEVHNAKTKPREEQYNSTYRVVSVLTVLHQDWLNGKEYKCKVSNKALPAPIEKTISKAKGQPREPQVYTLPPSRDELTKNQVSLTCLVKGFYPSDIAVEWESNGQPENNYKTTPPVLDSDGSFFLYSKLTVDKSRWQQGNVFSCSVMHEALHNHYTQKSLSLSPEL

Row | Substance | binding to mouse c-Met (in words) (mouse c-Met/Fc chimera) | visual identification of tumour against background (HCT-15 tumours; 1 nmol per animal i.v., HCT-15 tumour slice vs normal colon) | tumour to normal ratio (HCT-15 tumours; 1 nmol per animal i.v., HCT-15 tumour slice vs normal colon, ex vivo, 635 nm excitation) | tumour: background ratios (summary in words) (HCT-15 tumours; animal model of cancer, Example 7)
1 | Ac-Ala-Gly-Ser-Cys-Tyr-Cys-Ser-Gly-Pro-Pro-Arg-Phe-Glu-Cys-Trp-Cys-Tyr-Glu-Thr-Glu-Gly-Thr-Gly-Gly-Gly-Lys(Cy5)-NH2 (Ac-AGSCYCSGPPRFECWCYETEGTGGGK(Cy5)-NH2; also: two disulfides, pairing not given here) [Compound 3] | no binding | – | – | –
2 | Ac-TGECTCPYWEFRPCECGSYSGAGGGK(ε-Cy5**)-NH2 (Ac-TGECTCPYWEFRPCECGSYSGAGGGK-NH2; disulfide 6-14; disulfide 4-16 (inferred); not fully specified (residue 26); printed as Ac-TGECTCPYWEFRPCECGSYSGAGGGK(ε-Cy5**)-NH2) [Compound 7, negative control; scrambled control peptide with the same dye as Compound 5] | – | nothing was discernible against background | 1.04 | did not discriminate between tumour and background
